Reference: patent US12109218B2, “Compositions of grapiprant and methods for using the same” (ARATANA THERAPEUTICS, INC., priority 2014, dated 2024)
Where two headings read alike, the source gives them in different places.

Assay: Dose linearity and effect of feeding, PK in cats (Example 10)
Type: in vivo, cat
Details: for Cmax / AUC(0-inf) / Tmax / half-life / AUC(0-t): serum, po
Experimental: Grapiprant was blended in a mixture of excipients as shown in Table 14 and administered orally by capsule to male and female cats.
The day of dosing was defined as Day 0. Following dosing, the animals were evaluated for clinical signs. Blood samples were collected prior to dosing and at 0.25, 0.5, 1, 2, 4, 8, 12, and 24-hours postdose. The blood samples were processed to serum and analyzed for grapiprant concentration. There were no test article-related clinical signs. The mean grapiprant pharmacokinetic results were as follow in Table 16.

For `CCc1nc2c(C)nc(C)cc2n1-c1ccc(CCNC(=O)NS(=O)(=O)c2ccc(C)cc2)cc1` [grapiprant, N-{2-[4-(2-ethyl-4,6-dimethyl-1H-imidazo[4,5-c]pyridin-1-yl)phenyl]ethyl}-N′-[(4-methylphenyl)sulfonyl]urea], the Cmax (both sexes, 2 mg/kg, Group 1 fed cats, single oral 2 mg/kg capsule, males and females, read-out: Mean Cmax) was 327 to 407 ng/mL, the AUC(0-inf) (both sexes, 2 mg/kg, Group 1 fed cats, single oral 2 mg/kg capsule, males and females, read-out: mean AUC0-∞) was 1070 to 1220 ng·h/mL and the Tmax (both sexes, 2 mg/kg, Group 1 fed cats, single oral 2 mg/kg capsule, males and females, read-out: mean Tmax) was 1.33 to 1.65 h. The half-life (both sexes, 2 mg/kg, Group 1 fed cats, single oral 2 mg/kg capsule, males and females, read-out: mean terminal half-life) was 144 to 187 min, the Cmax (both sexes, 2 mg/kg, Group 2 fasted cats, single oral 2 mg/kg capsule, males and females, read-out: Mean Cmax) was 1100 to 1630 ng/mL and the AUC(0-inf) (both sexes, 2 mg/kg, Group 2 fasted cats, single oral 2 mg/kg capsule, males and females, read-out: mean AUC0-∞) was 1970 to 2850 ng·h/mL. For the same compound, the Tmax (both sexes, 2 mg/kg, Group 2 fasted cats, single oral 2 mg/kg capsule, males and females, read-out: mean Tmax) was 1.01 h, the half-life (both sexes, 2 mg/kg, Group 2 fasted cats, single oral 2 mg/kg capsule, males and females, read-out: mean terminal half-life) was 88.2 to 130 min and the Cmax (both sexes, 6 mg/kg, Group 3 fasted cats, single oral 6 mg/kg capsule, males and females, read-out: Mean Cmax) was 2970 to 3110 ng/mL. It also gave an AUC(0-inf) (both sexes, 6 mg/kg, Group 3 fasted cats, single oral 6 mg/kg capsule, males and females, read-out: mean AUC0-∞) of 3750 to 6350 ng·h/mL, a Tmax (both sexes, 6 mg/kg, Group 3 fasted cats, single oral 6 mg/kg capsule, males and females, read-out: mean Tmax) of 0.99 to 1.17 h and a half-life (both sexes, 6 mg/kg, Group 3 fasted cats, single oral 6 mg/kg capsule, males and females, read-out: mean terminal half-life) of 167 to 299 min. The Cmax (both sexes, 10 mg/kg, Group 4 fasted cats, single oral 10 mg/kg capsule, males and females, read-out: Mean Cmax) was 4280 to 7130 ng/mL, the AUC(0-inf) (both sexes, 10 mg/kg, Group 4 fasted cats, single oral 10 mg/kg capsule, males and females, read-out: mean AUC0-∞) was 7580 to 10900 ng·h/mL and the Tmax (both sexes, 10 mg/kg, Group 4 fasted cats, single oral 10 mg/kg capsule, males and females, read-out: mean Tmax) was 0.728 to 1.33 h. The half-life (both sexes, 10 mg/kg, Group 4 fasted cats, single oral 10 mg/kg capsule, males and females, read-out: mean terminal half-life) was 242 to 251 min, the tolerability (cats, one-time oral capsule, 2 (fed and fasted), 6, and 10 mg/kg) was “well-tolerated with no test article-related clinical signs” and the “dose linearity of exposure (AUC0-∞)” value (fasted cats, Groups 2-4, 2-10 mg/kg) was “roughly dose-linear but less than dose-proportional”. The AUC(0-t) (female, 2 mg/kg, cats, Group 1, 2 mg/kg capsule, Fed, Female, mean) was 990 ng·h/mL, the AUC(0-inf) (female, 2 mg/kg, cats, Group 1, 2 mg/kg capsule, Fed, Female, mean, read-out: AUC0-∞) was 1070 ng·h/mL and the Cmax (female, 2 mg/kg, cats, Group 1, 2 mg/kg capsule, Fed, Female, mean, read-out: Cmax) was 327 ng/mL. For the same compound, the Tmax (female, 2 mg/kg, cats, Group 1, 2 mg/kg capsule, Fed, Female, mean, read-out: Tmax) was 1.33 h, the half-life (female, 2 mg/kg, cats, Group 1, 2 mg/kg capsule, Fed, Female, mean, read-out: t1/2 (converted)) was 144 min and the AUC(0-t) (female, 2 mg/kg, cats, Group 2, 2 mg/kg capsule, Fasted, Female, mean) was 2780 ng·h/mL. It also gave an AUC(0-inf) (female, 2 mg/kg, cats, Group 2, 2 mg/kg capsule, Fasted, Female, mean, read-out: AUC0-∞) of 2850 ng·h/mL, a Cmax (female, 2 mg/kg, cats, Group 2, 2 mg/kg capsule, Fasted, Female, mean, read-out: Cmax) of 1630 ng/mL and a Tmax (female, 2 mg/kg, cats, Group 2, 2 mg/kg capsule, Fasted, Female, mean, read-out: Tmax) of 1.01 h. For the same compound, the half-life (female, 2 mg/kg, cats, Group 2, 2 mg/kg capsule, Fasted, Female, mean, read-out: t1/2 (converted)) was 88.2 min, the AUC(0-t) (female, 6 mg/kg, cats, Group 3, 6 mg/kg capsule, Fasted, Female, mean) was 6130 ng·h/mL and the AUC(0-inf) (female, 6 mg/kg, cats, Group 3, 6 mg/kg capsule, Fasted, Female, mean, read-out: AUC0-∞) was 6350 ng·h/mL. It also gave a Cmax (female, 6 mg/kg, cats, Group 3, 6 mg/kg capsule, Fasted, Female, mean, read-out: Cmax) of 3110 ng/mL, a Tmax (female, 6 mg/kg, cats, Group 3, 6 mg/kg capsule, Fasted, Female, mean, read-out: Tmax) of 1.17 h and a half-life (female, 6 mg/kg, cats, Group 3, 6 mg/kg capsule, Fasted, Female, mean, read-out: t1/2 (converted)) of 299 min. It also gave an AUC(0-t) (female, 10 mg/kg, cats, Group 4, 10 mg/kg capsule, Fasted, Female, mean) of 10700 ng·h/mL, an AUC(0-inf) (female, 10 mg/kg, cats, Group 4, 10 mg/kg capsule, Fasted, Female, mean, read-out: AUC0-∞) of 10900 ng·h/mL and a Cmax (female, 10 mg/kg, cats, Group 4, 10 mg/kg capsule, Fasted, Female, mean, read-out: Cmax) of 7130 ng/mL. For the same compound, the Tmax (female, 10 mg/kg, cats, Group 4, 10 mg/kg capsule, Fasted, Female, mean, read-out: Tmax) was 0.73 h, the half-life (female, 10 mg/kg, cats, Group 4, 10 mg/kg capsule, Fasted, Female, mean, read-out: t1/2 (converted)) was 251 min and the AUC(0-t) (male, 2 mg/kg, cats, Group 1, 2 mg/kg capsule, Fed, Male, mean) was 1030 ng·h/mL. For the same compound, the AUC(0-inf) (male, 2 mg/kg, cats, Group 1, 2 mg/kg capsule, Fed, Male, mean, read-out: AUC0-∞) was 1220 ng·h/mL, the Cmax (male, 2 mg/kg, cats, Group 1, 2 mg/kg capsule, Fed, Male, mean, read-out: Cmax) was 407 ng/mL and the Tmax (male, 2 mg/kg, cats, Group 1, 2 mg/kg capsule, Fed, Male, mean, read-out: Tmax) was 1.65 h. It also gave a half-life (male, 2 mg/kg, cats, Group 1, 2 mg/kg capsule, Fed, Male, mean, read-out: t1/2 (converted)) of 187 min, an AUC(0-t) (male, 2 mg/kg, cats, Group 2, 2 mg/kg capsule, Fasted, Male, mean) of 2290 ng·h/mL and an AUC(0-inf) (male, 2 mg/kg, cats, Group 2, 2 mg/kg capsule, Fasted, Male, mean, read-out: AUC0-∞) of 1970 ng·h/mL. The Cmax (male, 2 mg/kg, cats, Group 2, 2 mg/kg capsule, Fasted, Male, mean, read-out: Cmax) was 1100 ng/mL, the Tmax (male, 2 mg/kg, cats, Group 2, 2 mg/kg capsule, Fasted, Male, mean, read-out: Tmax) was 1.01 h and the half-life (male, 2 mg/kg, cats, Group 2, 2 mg/kg capsule, Fasted, Male, mean, read-out: t1/2 (converted)) was 130 min. For the same compound, the AUC(0-t) (male, 6 mg/kg, cats, Group 3, 6 mg/kg capsule, Fasted, Male, mean) was 3650 ng·h/mL, the AUC(0-inf) (male, 6 mg/kg, cats, Group 3, 6 mg/kg capsule, Fasted, Male, mean, read-out: AUC0-∞) was 3750 ng·h/mL and the Cmax (male, 6 mg/kg, cats, Group 3, 6 mg/kg capsule, Fasted, Male, mean, read-out: Cmax) was 2970 ng/mL. It also gave a Tmax (male, 6 mg/kg, cats, Group 3, 6 mg/kg capsule, Fasted, Male, mean, read-out: Tmax) of 0.99 h, a half-life (male, 6 mg/kg, cats, Group 3, 6 mg/kg capsule, Fasted, Male, mean, read-out: t1/2 (converted)) of 167 min and an AUC(0-t) (male, 10 mg/kg, cats, Group 4, 10 mg/kg capsule, Fasted, Male, mean) of 7430 ng·h/mL. The AUC(0-inf) (male, 10 mg/kg, cats, Group 4, 10 mg/kg capsule, Fasted, Male, mean, read-out: AUC0-∞) was 7580 ng·h/mL, the Cmax (male, 10 mg/kg, cats, Group 4, 10 mg/kg capsule, Fasted, Male, mean, read-out: Cmax) was 4280 ng/mL and the Tmax (male, 10 mg/kg, cats, Group 4, 10 mg/kg capsule, Fasted, Male, mean, read-out: Tmax) was 1.33 h. For the same compound, the half-life (male, 10 mg/kg, cats, Group 4, 10 mg/kg capsule, Fasted, Male, mean, read-out: t1/2 (converted)) was 242 min.
